The record followed here is patent US20080153850A1, “Adamantyl Derivates as P2x7 Receptor Antagonists” (AstraZeneca AB, priority 2004, published 2008).

Counter-ions that a name gives are not always drawn.

Compound `Cc1ccc(-c2ccccc2C(=O)O)cc1C(=O)NCC12CC3CC(CC(C3)C1)C2` [Example 67, 4′-Methyl-3′-[[(tricyclo[3.3.1.1^3,7]dec-1-ylmethyl)amino]carbonyl]-[1,1′-biphenyl]-2-carboxylic acid] registered a melting point of 85 to 92 °C. Next, `O=C(O)c1cc(C(F)(F)F)cc(-c2ccc(Cl)c(C(=O)NCC34CC5CC(CC(C5)C3)C4)c2)n1` [Example 72, 6-[4-Chloro-3-[[(tricyclo[3.3.1.1^3,7]dec-1-ylmethyl)amino]carbonyl]phenyl]-4-(trifluoromethyl)-2-pyridinecarboxylic acid]: 220 to 225 °C. `O=C(O)CCOc1ccccc1-c1ccc(Cl)c(C(=O)NCC23CC4CC(CC(C4)C2)C3)c1` [Example 16, 3-[[4′-Chloro-3′-[[(tricyclo[3.3.1.1^3,7]dec-1-ylmethyl)amino]carbonyl][1,1′-biphenyl]-2-yl]oxy]-propanoic acid] registered a melting point of 163 to 164 °C. Next, `O=C(O)Cc1ncccc1-c1ccc(Cl)c(C(=O)NCC23CC4CC(CC(C4)C2)C3)c1` (as salt: sodium) [Example 58, 3-[4-Chloro-3-[[(tricyclo[3.3.1.1^3,7]dec-1-ylmethyl)amino]carbonyl]phenyl]-2-pyridineacetic acid, monosodium salt]: 186 to 187 °C (dec.); `O=C(O)c1ccnc(-c2ccc(Cl)c(C(=O)NCC34CC5CC(CC(C5)C3)C4)c2)c1` [Example 12, 2-[4-Chloro-3-[[(tricyclo[3.3.1.1^3,7]dec-1-ylmethyl)amino]carbonyl]phenyl]-4-pyridinecarboxylic acid]: 284 to 287 °C. Consider `O=C(NCC12CC3CC(CC(C3)C1)C2)c1cc(-c2ncc(Cl)cc2C(=O)O)ccc1Cl` [Example 17, 5-Chloro-2-[4-chloro-3-[[(tricyclo[3.3.1.1^3,7]dec-1-ylmethyl)amino]carbonyl]phenyl]-3-pyridinecarboxylic acid], for which the melting point fell in the range of 165 to 168 °C. With `O=C(NCC12CC3CC(CC(C3)C1)C2)c1cc(-c2ncccc2OCc2nnn[nH]2)ccc1Cl` [Example 29, 2-Chloro-5-[3-(1H-tetrazol-5-ylmethoxy)-2-pyridinyl]-N-(tricyclo[3.3.1.1^3,7]dec-1-ylmethyl)-benzamide], the melting point lay in the range of 122 to 126 °C. Compound `O=C(O)CNc1cccnc1-c1ccc(Cl)c(C(=O)NCC23CC4CC(CC(C4)C2)C3)c1` [Example 47, N-[2-[4-Chloro-3-[[(tricyclo[3.3.1.1^3,7]dec-1-ylmethyl)amino]carbonyl]phenyl]-3-pyridinyl]-glycine] showed a melting point of 190 to 194 °C.

For the compound `CC(=O)Nc1ccc(-c2ccc(Cl)c(C(=O)NCC34CC5CC(CC(C5)C3)C4)c2)c(C)n1` [Example 73, 5-[6-(Acetylamino)-2-methyl-3-pyridinyl]-2-chloro-N-(tricyclo[3.3.1.1^3,7]dec-1-ylmethyl)-benzamide], the melting point was in the range of 172 to 177 °C. As for `CN(CC(=O)O)c1nccnc1-c1ccc(Cl)c(C(=O)NCC23CC4CC(CC(C4)C2)C3)c1` [Example 33, N-[3-[4-Chloro-3-[[(tricyclo[3.3.1.1^3,7]dec-1-ylmethyl)amino]carbonyl]phenyl]pyrazinyl]-N-methyl-glycine], the melting point was 151 to 153 °C (dec.). Under `C[C@H](Oc1cccc(-c2ccc(Cl)c(C(=O)NCC34CC5CC(CC(C5)C3)C4)c2)c1)C(=O)O` [Example 41, (2S)-2-[[4′-Chloro-3′-[[(tricyclo[3.3.1.1^3,7]dec-1-ylmethyl)amino]carbonyl][1,1′-biphenyl]-3-yl]oxy]-propanoic acid] stands 115 to 120 °C; under `O=C(NCC12CC3CC(CC(C3)C1)C2)c1cc(-c2cccnc2N2CCC[C@H]2C(=O)O)ccc1Cl` [Example 60, 1-[3-[4-Chloro-3-[[(tricyclo[3.3.1.1^3,7]dec-1-ylmethyl)amino]carbonyl]phenyl]-2-pyridinyl]-L-proline], 121 to 125 °C; under `Cc1nn(C)c(C(=O)O)c1-c1ccc(Cl)c(C(=O)NCC23CC4CC(CC(C4)C2)C3)c1` [Example 56, 4-[4-Chloro-3-[[(tricyclo[3.3.1.1^3,7]dec-1-ylmethyl)amino]carbonyl]phenyl]-1,3-dimethyl-1H-pyrazole-5-carboxylic acid], 207 °C. For the compound `Cn1ncc(-c2ccc(Cl)c(C(=O)NCC34CC5CC(CC(C5)C3)C4)c2)c1C(=O)O` [Example 32, 4-[4-Chloro-3-[[(tricyclo[3.3.1.1^3,7]dec-1-ylmethyl)amino]carbonyl]phenyl]-1-methyl-1H-pyrazole-5-carboxylic acid], the melting point is 187 to 190 °C (dec.). The compound `O=C(O)COc1ccccc1-c1ccc(Cl)c(C(=O)NCC23CC4CC(CC(C4)C2)C3)c1` [Example 15, [[4′-Chloro-3′-[[(tricyclo[3.3.1.1^3,7]dec-1-ylmethyl)amino]carbonyl][1,1′-biphenyl]-2-yl]oxy]-acetic acid] gave a melting point of 208 to 210 °C.

The compound `CS(=O)(=O)Nc1cccc(-c2ccc(Cl)c(C(=O)NCC34CC5CC(CC(C5)C3)C4)c2)n1` [Example 27, 2-Chloro-5-[6-[(methylsulfonyl)amino]-2-pyridinyl]-N-(tricyclo[3.3.1.1^3,7]dec-1-ylmethyl)-benzamide] showed a melting point of 115 to 120 °C. Compound `O=C(O)COc1cccc(-c2ccc(Cl)c(C(=O)NCC34CC5CC(CC(C5)C3)C4)c2)c1` [Example 38, [[4′-Chloro-3′-[[(tricyclo[3.3.1.1^3,7]dec-1-ylmethyl)amino]carbonyl][1,1′-biphenyl]-3-yl]oxy]-acetic acid] came in with a melting point of 99 to 101 °C.

Compound `O=C(NCC12CC3CC(CC(C3)C1)C2)c1cc(-c2ccc(Cl)c(C(=O)O)n2)ccc1Cl` [Example 44, 3-Chloro-6-[4-chloro-3-[[(tricyclo[3.3.1.1^3,7]dec-1-ylmethyl)amino]carbonyl]phenyl]-2-pyridinecarboxylic acid] registered a melting point of 154 to 159 °C. For the compound `O=C(NCC12CC3CC(CC(C3)C1)C2)c1cc(-c2cccnc2N2CC(C(=O)O)C2)ccc1Cl` [Example 62, 1-[3-[4-Chloro-3-[[(tricyclo[3.3.1.1^3,7]dec-1-ylmethyl)amino]carbonyl]phenyl]-2-pyridinyl]-3-azetidinecarboxylic acid], the melting point was 145 to 150 °C. As for `O=C(NCC12CC3CC(CC(C3)C1)C2)c1cc(-c2nccnc2-c2nnn[nH]2)ccc1Cl` [Example 9, 2-Chloro-5-[3(1-H-tetrazol-5-yl)pyrazinyl]-N-(tricyclo[3.3.1.1^3,7]dec-1-ylmethyl)-benzamide], the melting point was 254 °C (dec.). `O=C(NCC12CC3CC(CC(C3)C1)C2)c1cc(-c2cc(F)ccc2C(=O)O)ccc1Cl` [Example 36, 4′-Chloro-5-fluoro-3′-[[(tricyclo[3.3.1.1^3,7]dec-1-ylmethyl)amino]carbonyl]-[1,1′-biphenyl]-2-carboxylic acid] displayed a melting point of 120 to 124 °C. Consider `O=C(O)Cc1ccccc1-c1ccc(Cl)c(C(=O)NCC23CC4CC(CC(C4)C2)C3)c1` [Example 37, 4′-Chloro-3′-[[(tricyclo[3.3.1.1^3,7]dec-1-ylmethyl)amino]carbonyl]-[1,1′-biphenyl]-2-acetic acid], for which the melting point is 200 to 202 °C. `O=C(NCC12CC3CC(CC(C3)C1)C2)c1cc(-c2ccccc2C(=O)O)ccc1Cl` [Example 3, 4′-Chloro-3′-[[(tricyclo[3.3.1.1^3,7]dec-1-ylmethyl)amino]carbonyl]-[1,1′-biphenyl]-2-carboxylic acid]: the melting point fell in the range of 228 to 230 °C. Next, `O=C(NCCC12CC3CC(CC(C3)C1)C2)c1cc(-c2cccnc2C(=O)O)ccc1Cl` [Example 50, 3-[4-Chloro-3-[[(2-tricyclo[3.3.1.1^3,7]dec-1-ylethyl)amino]carbonyl]phenyl]-2-pyridinecarboxylic acid]: 108 to 111 °C; `N#CNc1nccnc1-c1ccc(Cl)c(C(=O)NCC23CC4CC(CC(C4)C2)C3)c1` [Example 5, 2-Chloro-5-[3-(cyanamino)pyrazinyl]-N-(tricyclo[3.3.1.1^3,7]dec-1-ylmethyl)-benzamide]: 110 to 115 °C (dec.).

In turn, `Cc1cccc(C(=O)O)c1-c1ccc(Cl)c(C(=O)NCC23CC4CC(CC(C4)C2)C3)c1` [Example 18, 4′-Chloro-6-methyl-3′-[[(tricyclo[3.3.1.1^3,7]dec-1-ylmethyl)amino]carbonyl]-[1,1′-biphenyl]-2-carboxylic acid] registered a melting point of 151 to 154 °C. Compound `O=C(NCC12CC3CC(CC(C3)C1)C2)c1cc(-c2cc(F)c(F)cc2C(=O)O)ccc1Cl` [Example 48, 4′-Chloro-4,5-difluoro-3′-[[(tricyclo[3.3.1.1^3,7]dec-1-ylmethyl)amino]carbonyl]-[1,1′-biphenyl]-2-carboxylic acid] showed a melting point of 121 to 125 °C. Under `C[C@@H](Oc1ccccc1-c1ccc(Cl)c(C(=O)NCC23CC4CC(CC(C4)C2)C3)c1)C(=O)O` [Example 39, (2R)-2-[[4′-Chloro-3′-[[(tricyclo[3.3.1.1^3,7]dec-1-ylmethyl)amino]carbonyl][1,1′-biphenyl]-2-yl]oxy]-propanoic acid] stands 133 to 137 °C; under `Cc1ccc(-c2ccc(Cl)c(C(=O)NCC34CC5CC(CC(C5)C3)C4)c2)nc1C(=O)O` [Example 71, 6-[4-Chloro-3-[[(tricyclo[3.3.1.1^3,7]dec-1-ylmethyl)amino]carbonyl]phenyl]-3-methyl-2-pyridinecarboxylic acid], 180 to 185 °C. Under `O=C(O)c1cccc(-c2cc(C(=O)NCC34CC5CC(CC(C5)C3)C4)c(Cl)cn2)c1` [Example 7, 3-[5-Chloro-4-[[(tricyclo [3.3.1.1^3,7]dec-1-ylmethyl)amino]carbonyl]-2-pyridinyl]-benzoic acid] stands 200 to 202 °C; under `O=C(O)COc1ccc(-c2ccc(Cl)c(C(=O)NCC34CC5CC(CC(C5)C3)C4)c2)cc1` [Example 40, [[4′-Chloro-3′-[[(tricyclo[3.3.1.1^3,7]dec-1-ylmethyl)amino]carbonyl][1,1′-biphenyl]-4-yl]oxy]-acetic acid], 136 to 140 °C.

What is called melting point is the temperature of the solid-liquid transition.
